Experimental data from patent publication US9833497B2, “Human originated EGF domain proteins and use of the same” (CHENGDU SOURCEBIO LIMITED-LIABILITY COMPANY, priority 2013, dated 2017).

Experiments:
Format in all cases: cell-based
E. coli DH5α = assay: Antibacterial activity: MIC and growth curve against E. coli DH5α in 96-well plate; settings: minimal inhibitory concentration against E. coli DH5α; 96-well plate, 5×10^5 CFU/mL, 37° C., judged after 8 h
In short: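 Log-phase DH5α (OD600 about 0.5, 37° C, 185 rpm in LB) was pelleted, resuspended in fresh LB and seeded at 5×10^5 CFU/mL with recombinant protein at 50, 25 and 12.5 μg/mL (two-fold series), in triplicate. Plates were shaken at 175 rpm, 37° C, and OD600 was read every 30 min. MIC was the lowest concentration with no growth.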

E. coli BL21 = assay: MIC against Gram-negative bacteria: E. coli BL21
In short: (§1)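 Broth microdilution, LB medium, final inoculum 5×10^5 CFU/mL from McFarland 0.5 cultures. Recombinant human EGF domain proteins tested in two-fold steps, n=3. MIC: lowest concentration, no growth.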

Pseudomonas aeruginosa = assay: MIC against Gram-negative bacteria: Pseudomonas aeruginosa
In short: as §1

Klebsiella pneumonia = assay: MIC against Gram-negative bacteria: Klebsiella pneumonia
In short: as §1

Enterobacter cloacae = assay: MIC against Gram-negative bacteria: Enterobacter cloacae
In short: as §1

Aeromonas hydrophila = assay: MIC against Gram-negative bacteria: Aeromonas hydrophila
In short: as §1

Citrobacter diversus = assay: MIC against Gram-negative bacteria: Citrobacter diversus
In short: as §1

Moraxella catarrhalis = assay: MIC against Gram-negative bacteria: Moraxella catarrhalis
In short: as §1

Proteus mirabilis = assay: MIC against Gram-negative bacteria: Proteus mirabilis
In short: as §1

Proteus vulgaris = assay: MIC against Gram-negative bacteria: Proteus vulgaris
In short: as §1

Serratia marcescens = assay: MIC against Gram-negative bacteria: Serratia marcescens
In short: as §1

[1] = 10 h cultivation at 37° C., 5×10^5 CFU/mL, two-fold serial dilution
[2] = E. coli BL21, 10 h cultivation at 37° C., 5×10^5 CFU/mL
[3] = P. aeruginosa, 10 h cultivation at 37° C., 5×10^5 CFU/mL
[4] = K. pneumonia, 10 h cultivation at 37° C., 5×10^5 CFU/mL
[5] = E. cloacae, 10 h cultivation at 37° C., 5×10^5 CFU/mL
[6] = A. hydrophila, 10 h cultivation at 37° C., 5×10^5 CFU/mL
[7] = C. diversus, 10 h cultivation at 37° C., 5×10^5 CFU/mL
[8] = M. catarrhalis, 10 h cultivation at 37° C., 5×10^5 CFU/mL
[9] = P. mirabilis, 10 h cultivation at 37° C., 5×10^5 CFU/mL
[10] = P. vulgaris, 10 h cultivation at 37° C., 5×10^5 CFU/mL
[11] = S. marcescens, 10 h cultivation at 37° C., 5×10^5 CFU/mL
[12] = E. coli BL21, 10 h cultivation at 37° C.
[13] = P. aeruginosa, 10 h cultivation at 37° C.
[14] = K. pneumonia, 10 h cultivation at 37° C.
[15] = E. cloacae, 10 h cultivation at 37° C.
[16] = A. hydrophila, 10 h cultivation at 37° C.
[17] = C. diversus, 10 h cultivation at 37° C.
[18] = M. catarrhalis, 10 h cultivation at 37° C.
[19] = P. mirabilis, 10 h cultivation at 37° C.
[20] = P. vulgaris, 10 h cultivation at 37° C.
[21] = S. marcescens, 10 h cultivation at 37° C.
[22] = 96-well plate, 5×10^5 CFU/mL, 37° C., 10 h
[23] = E. coli BL21, 96-well plate, 5×10^5 CFU/mL, 37° C., 10 h
[24] = Pseudomonas aeruginosa, 96-well plate, 5×10^5 CFU/mL, 37° C., 10 h
[25] = Klebsiella pneumonia, 96-well plate, 5×10^5 CFU/mL, 37° C., 10 h
[26] = Enterobacter cloacae, 96-well plate, 5×10^5 CFU/mL, 37° C., 10 h
[27] = Aeromonas hydrophila, 96-well plate, 5×10^5 CFU/mL, 37° C., 10 h
[28] = Citrobacter diversus, 96-well plate, 5×10^5 CFU/mL, 37° C., 10 h
[29] = Moraxella catarrhalis, 96-well plate, 5×10^5 CFU/mL, 37° C., 10 h
[30] = Proteus mirabilis, 96-well plate, 5×10^5 CFU/mL, 37° C., 10 h
[31] = Proteus vulgaris, 96-well plate, 5×10^5 CFU/mL, 37° C., 10 h
[32] = Serratia marcescens, 96-well plate, 5×10^5 CFU/mL, 37° C., 10 h

PRT1048 (YGKRCVPCKCANHSFCHPSNGTCYCLAGWTGPDCS; listed as Homo sapiens)
50 µg/mL: MIC P. aeruginosa (Pseudomonas aeruginosa; [1]) | MIC C. diversus (Citrobacter diversus; [1]) | MIC P. vulgaris (Proteus vulgaris; [1])
25 µg/mL: MIC E. coli BL21 (E. coli BL21; [1]) | MIC K. pneumonia (Klebsiella pneumonia; [1]) | MIC A. hydrophila (Aeromonas hydrophila; [1]) | MIC M. catarrhalis (Moraxella catarrhalis; [1])
12.5 µg/mL: MIC (E. coli DH5α) | MIC E. cloacae (Enterobacter cloacae; [1]) | MIC P. mirabilis (Proteus mirabilis; [1]) | MIC S. marcescens (Serratia marcescens; [1])

PRT886 (RGPRCSQPGETCLNGGKCEAANGTEACVCGGAFVGPRCQ; listed as Homo sapiens)
12.5 µg/mL: MIC (μg/mL) E. coli BL21 (E. coli BL21; [2]) | MIC (μg/mL) K. pneumonia (Klebsiella pneumonia; [4]) | MIC (μg/mL) A. hydrophila (Aeromonas hydrophila; [6]) | MIC (μg/mL) M. catarrhalis (Moraxella catarrhalis; [8]) | MIC (μg/mL) P. vulgaris (Proteus vulgaris; [10])
25 µg/mL: MIC (E. coli DH5α) | MIC (μg/mL) P. aeruginosa (Pseudomonas aeruginosa; [3]) | MIC (μg/mL) E. cloacae (Enterobacter cloacae; [5]) | MIC (μg/mL) C. diversus (Citrobacter diversus; [7]) | MIC (μg/mL) P. mirabilis (Proteus mirabilis; [9]) | MIC (μg/mL) S. marcescens (Serratia marcescens; [11])

PRT163 (EYNECLSAPCLNAATCRDLVNGYECVCLAEYKGTHCE; listed as Homo sapiens)
12.5 µg/mL: MIC (E. coli DH5α) | MIC (μg/mL) P. aeruginosa (Pseudomonas aeruginosa; [3]) | MIC (μg/mL) E. cloacae (Enterobacter cloacae; [5]) | MIC (μg/mL) C. diversus (Citrobacter diversus; [7]) | MIC (μg/mL) S. marcescens (Serratia marcescens; [11])
50 µg/mL: MIC (μg/mL) P. mirabilis (Proteus mirabilis; [9])
25 µg/mL: MIC (μg/mL) E. coli BL21 (E. coli BL21; [2]) | MIC (μg/mL) K. pneumonia (Klebsiella pneumonia; [4]) | MIC (μg/mL) A. hydrophila (Aeromonas hydrophila; [6]) | MIC (μg/mL) M. catarrhalis (Moraxella catarrhalis; [8]) | MIC (μg/mL) P. vulgaris (Proteus vulgaris; [10])

PRT900 (VLAPCAPSPCRNGGECRQSEDYESFSCVCPTGWQGQTCE; listed as Homo sapiens)
50 µg/mL: MIC (Serratia marcescens; [21])
25 µg/mL: MIC (E. coli BL21; [12]) | MIC (Moraxella catarrhalis; [18]) | MIC (Proteus vulgaris; [20])
12.5 µg/mL: MIC (E. coli DH5α) | MIC (Pseudomonas aeruginosa; [13]) | MIC (Klebsiella pneumonia; [14]) | MIC (Enterobacter cloacae; [15]) | MIC (Aeromonas hydrophila; [16]) | MIC (Citrobacter diversus; [17]) | MIC (Proteus mirabilis; [19])

PRT754 (IQDLCAMEDHNCEQLCVNVPGSFVCQCYSGYALAEDGKRCV; listed as Homo sapiens)
12.5 µg/mL: MIC (μg/mL) E. coli BL21 (E. coli BL21; [2]) | MIC (μg/mL) E. cloacae (Enterobacter cloacae; [5]) | MIC (μg/mL) P. mirabilis (Proteus mirabilis; [9])
25 µg/mL: MIC (E. coli DH5α) | MIC (μg/mL) K. pneumonia (Klebsiella pneumonia; [4]) | MIC (μg/mL) A. hydrophila (Aeromonas hydrophila; [6]) | MIC (μg/mL) M. catarrhalis (Moraxella catarrhalis; [8]) | MIC (μg/mL) S. marcescens (Serratia marcescens; [11])
50 µg/mL: MIC (μg/mL) P. aeruginosa (Pseudomonas aeruginosa; [3]) | MIC (μg/mL) C. diversus (Citrobacter diversus; [7]) | MIC (μg/mL) P. vulgaris (Proteus vulgaris; [10])

PRT733 (SSNGCSNNMNACQQICLPVPGGLFSCACATGFKLNPDNRSCS; listed as Homo sapiens)
50 µg/mL: MIC (E. coli DH5α) | MIC P. aeruginosa (Pseudomonas aeruginosa; [22]) | MIC E. cloacae (Enterobacter cloacae; [22]) | MIC M. catarrhalis (Moraxella catarrhalis; [22])
25 µg/mL: MIC C. diversus (Citrobacter diversus; [22]) | MIC P. mirabilis (Proteus mirabilis; [22]) | MIC S. marcescens (Serratia marcescens; [22])
12.5 µg/mL: MIC E. coli BL21 (E. coli BL21; [22]) | MIC K. pneumonia (Klebsiella pneumonia; [22]) | MIC A. hydrophila (Aeromonas hydrophila; [22]) | MIC P. vulgaris (Proteus vulgaris; [22])

PRT1049 (WGENCAQTCQCHHGGTCHPQDGSCICPLGWTGHHCL; listed as Homo sapiens)
25 µg/mL: MIC E. coli BL21 (E. coli BL21; [1]) | MIC K. pneumonia (Klebsiella pneumonia; [1])
50 µg/mL: MIC P. mirabilis (Proteus mirabilis; [1]) | MIC S. marcescens (Serratia marcescens; [1])
12.5 µg/mL: MIC (E. coli DH5α) | MIC P. aeruginosa (Pseudomonas aeruginosa; [1]) | MIC E. cloacae (Enterobacter cloacae; [1]) | MIC A. hydrophila (Aeromonas hydrophila; [1]) | MIC C. diversus (Citrobacter diversus; [1]) | MIC M. catarrhalis (Moraxella catarrhalis; [1]) | MIC P. vulgaris (Proteus vulgaris; [1])

PRT1104 (EVDECASDPCKNEATCLNEIGRYTCICPHNYSGVNCE; listed as Homo sapiens)
50 µg/mL: MIC (E. coli DH5α) | MIC P. aeruginosa (Pseudomonas aeruginosa; [1]) | MIC A. hydrophila (Aeromonas hydrophila; [1]) | MIC P. vulgaris (Proteus vulgaris; [1])
12.5 µg/mL: MIC E. coli BL21 (E. coli BL21; [1]) | MIC K. pneumonia (Klebsiella pneumonia; [1]) | MIC M. catarrhalis (Moraxella catarrhalis; [1])
25 µg/mL: MIC E. cloacae (Enterobacter cloacae; [1]) | MIC C. diversus (Citrobacter diversus; [1]) | MIC P. mirabilis (Proteus mirabilis; [1]) | MIC S. marcescens (Serratia marcescens; [1])

PRT987 (NVDDCPGHRCLNGGTCVDGVNTYNCQCPPEWTGQFCT; listed as Homo sapiens)
25 µg/mL: MIC (E. coli DH5α) | MIC (Pseudomonas aeruginosa; [13]) | MIC (Enterobacter cloacae; [15])
50 µg/mL: MIC (Klebsiella pneumonia; [14]) | MIC (Citrobacter diversus; [17]) | MIC (Proteus mirabilis; [19]) | MIC (Serratia marcescens; [21])
12.5 µg/mL: MIC (E. coli BL21; [12]) | MIC (Aeromonas hydrophila; [16]) | MIC (Moraxella catarrhalis; [18]) | MIC (Proteus vulgaris; [20])

PRT115 (SRNPCSSSPCRGGATCVLGPHGKNYTCRCPQGYQLDSSQLDCV; listed as Homo sapiens)
50 µg/mL: MIC (μg/mL) E. coli BL21 (E. coli BL21; [23]) | MIC (μg/mL) K. pneumonia (Klebsiella pneumonia; [25]) | MIC (μg/mL) M. catarrhalis (Moraxella catarrhalis; [29])
12.5 µg/mL: MIC (E. coli DH5α) | MIC (μg/mL) P. aeruginosa (Pseudomonas aeruginosa; [24]) | MIC (μg/mL) A. hydrophila (Aeromonas hydrophila; [27]) | MIC (μg/mL) P. mirabilis (Proteus mirabilis; [30]) | MIC (μg/mL) P. vulgaris (Proteus vulgaris; [31]) | MIC (μg/mL) S. marcescens (Serratia marcescens; [32])
25 µg/mL: MIC (μg/mL) E. cloacae (Enterobacter cloacae; [26]) | MIC (μg/mL) C. diversus (Citrobacter diversus; [28])

PRT992 (LEDMCLSQPCHGDAQCSTNPLTGSTLCLCQPGYSGPTCH; listed as Homo sapiens)
12.5 µg/mL: MIC (E. coli DH5α) | MIC (E. coli BL21; [12]) | MIC (Pseudomonas aeruginosa; [13]) | MIC (Klebsiella pneumonia; [14]) | MIC (Proteus vulgaris; [20])
25 µg/mL: MIC (Enterobacter cloacae; [15]) | MIC (Aeromonas hydrophila; [16]) | MIC (Citrobacter diversus; [17]) | MIC (Moraxella catarrhalis; [18]) | MIC (Proteus mirabilis; [19]) | MIC (Serratia marcescens; [21])

PRT1303 (HGLCRSVEKDSVVCECRPGWTGPLCD; listed as Homo sapiens)
25 µg/mL: MIC against P. mirabilis (Proteus mirabilis; [30]) | MIC against S. marcescens (Serratia marcescens; [32])
12.5 µg/mL: MIC (E. coli DH5α) | MIC against P. aeruginosa (Pseudomonas aeruginosa; [24]) | MIC against E. cloacae (Enterobacter cloacae; [26]) | MIC against C. diversus (Citrobacter diversus; [28]) | MIC against M. catarrhalis (Moraxella catarrhalis; [29]) | MIC against P. vulgaris (Proteus vulgaris; [31])
50 µg/mL: MIC against E. coli BL21 (E. coli BL21; [23]) | MIC against K. pneumonia (Klebsiella pneumonia; [25]) | MIC against A. hydrophila (Aeromonas hydrophila; [27])

PRT160 (KIDYCILDPCRNGATCISSLSGFTCQCPEGYFGSACE; listed as Homo sapiens)
12.5 µg/mL: MIC (E. coli DH5α) | MIC (μg/mL) P. aeruginosa (Pseudomonas aeruginosa; [3]) | MIC (μg/mL) C. diversus (Citrobacter diversus; [7]) | MIC (μg/mL) P. mirabilis (Proteus mirabilis; [9]) | MIC (μg/mL) S. marcescens (Serratia marcescens; [11])
25 µg/mL: MIC (μg/mL) E. coli BL21 (E. coli BL21; [2]) | MIC (μg/mL) K. pneumonia (Klebsiella pneumonia; [4]) | MIC (μg/mL) E. cloacae (Enterobacter cloacae; [5]) | MIC (μg/mL) A. hydrophila (Aeromonas hydrophila; [6]) | MIC (μg/mL) M. catarrhalis (Moraxella catarrhalis; [8]) | MIC (μg/mL) P. vulgaris (Proteus vulgaris; [10])
